# In ChEMBL document CHEMBL4261496, “Targeting quinolone- and aminocoumarin-resistant bacteria with new gyramide analogs that inhibit DNA gyrase” (Medchemcomm, 2017):
# Active and inactive are the calls of the source. The rule behind the calls is not given here.
# Columns and labels:
# [1] = tested on: Escherichia coli; experiment: Antibacterial activity against Escherichia coli JW5503 after 16 to 18 hrs by broth microdilution method; format: functional
# [2] = tested on: Escherichia coli; experiment: Antibacterial activity against Escherichia coli JW5503 transfected with empty vector in absence of IPTG induction after 16 hrs by broth microdilution method; format: functional; conditions: JW5503, 16 h
# [3] = tested on: Escherichia coli; experiment: Antibacterial activity against gyramide-resistant Escherichia coli JW5503 harboring GyrA Phe96Leu mutant after 16 to 18 hrs by broth microdilution method; format: functional
# [4] = tested on: Escherichia coli; experiment: Antibacterial activity against Escherichia coli JW5503 overexpressing gyrA/gyrB in absence of IPTG induction after 16 hrs by broth microdilution method; format: functional; conditions: JW5503, 16 h
# [5] = tested on: Escherichia coli; experiment: Ratio of MIC for novobiocin-resistant Escherichia coli LE316 harboring GyrB Arg136Val mutant to MIC for Escherichia coli HB101; format: functional
# [6] = tested on: Escherichia coli; experiment: Antibacterial activity against Escherichia coli BW25113 after 16 to 18 hrs by broth microdilution method; format: functional
# [7] = Ratio of MIC for Escherichia coli BW25113 to MIC for Escherichia coli JW5503; format: functional
# [8] = tested on: Streptococcus agalactiae; experiment: Antibacterial activity against Streptococcus agalactiae after 16 to 18 hrs by broth microdilution method; format: functional
# [9] = target: DNA gyrase (Escherichia coli) (UniProt P0AES6+P0AES4); experiment: Inhibition of Escherichia coli DNA gyrase ATPase activity up to 100 uM using DNA as substrate after 60 mins; format: protein-complex assay
# [10] = tested on: Escherichia coli; experiment: Antibacterial activity against ciprofloxacin-resistant Escherichia coli JW5503 harboring GyrA Asp87Gly mutant after 16 to 18 hrs by broth microdilution method; format: functional
# [11] = tested on: Escherichia coli; experiment: Antibacterial activity against Escherichia coli JW5503 overexpressing gyrA/gyrB in presence of IPTG induction after 16 hrs by broth microdilution method; format: functional; conditions: JW5503, 16 h
# [12] = tested on: Streptococcus pyogenes; experiment: Antibacterial activity against Streptococcus pyogenes after 16 to 18 hrs by broth microdilution method; format: functional
# [13] = tested on: Escherichia coli; experiment: Antibacterial activity against gyramide-resistant Escherichia coli JW5503 harboring GyrB Thr508Met mutant after 16 to 18 hrs by broth microdilution method; format: functional
# [14] = tested on: Acinetobacter baumannii; experiment: Antibacterial activity against Acinetobacter baumannii clinical isolate after 16 to 18 hrs by broth microdilution method; format: functional
# [15] = tested on: Escherichia coli; experiment: Antibacterial activity against Escherichia coli HB101 after 16 to 18 hrs by broth microdilution method; format: functional
# [16] = tested on: Escherichia coli; experiment: Antibacterial activity against Escherichia coli BAS849 after 16 to 18 hrs by broth microdilution method; format: functional
# [17] = tested on: Escherichia coli; experiment: Ratio of MIC for Escherichia coli MC4100 to MIC for Escherichia coli BAS849; format: functional
# [18] = tested on: Escherichia coli; experiment: Antibacterial activity against Escherichia coli JW5503 simultaneously overexpressing gyrA/gyrB in presence of IPTG induction after 16 hrs by broth microdilution method; format: functional, organism-based
# [19] = tested on: Escherichia coli; experiment: Ratio of MIC for gyramide-resistant Escherichia coli JW5503 harboring GyrA Ser97Pro mutant to MIC for Escherichia coli JW5503; format: functional
# [20] = tested on: Escherichia coli; experiment: Ratio of MIC for ciprofloxacin-resistant Escherichia coli JW5503 harboring GyrA Asp87Tyr mutant to MIC for Escherichia coli JW5503; format: functional
# [21] = tested on: Escherichia coli; experiment: Ratio of MIC for gyramide-resistant Escherichia coli JW5503 harboring GyrA Pro35Thr mutant to MIC for Escherichia coli JW5503; format: functional
# [22] = tested on: Shigella flexneri; experiment: Antibacterial activity against Shigella flexneri after 16 to 18 hrs by broth microdilution method; format: functional
# [23] = target: DNA gyrase (Escherichia coli, UniProt P0AES4+P0AES6); experiment: Inhibition of Escherichia coli DNA gyrase assessed as inhibition of pUC19 supercoiling after 30 mins by agarose gel electrophoresis; format: protein-complex assay
# [24] = tested on: Escherichia coli; experiment: Antibacterial activity against Escherichia coli JW5503 overexpressing gyrB in presence of IPTG induction after 16 hrs by broth microdilution method; format: functional; conditions: JW5503, 16 h
# [25] = tested on: Salmonella typhimurium; experiment: Antibacterial activity against Salmonella enterica subsp. enterica serovar Typhimurium after 16 to 18 hrs by broth microdilution method; format: functional
# [26] = tested on: Staphylococcus aureus; experiment: Antibacterial activity against Staphylococcus aureus subsp. aureus clinical isolate after 16 to 18 hrs by broth microdilution method; format: functional
# [27] = tested on: Escherichia coli; experiment: Ratio of MIC for gyramide-resistant Escherichia coli JW5503 harboring GyrA Phe96Leu mutant to MIC for Escherichia coli JW5503; format: functional
# [28] = tested on: Escherichia coli; experiment: Antibacterial activity against gyramide-resistant Escherichia coli JW5503 harboring GyrA Pro35Thr mutant after 16 to 18 hrs by broth microdilution method; format: functional
# [29] = tested on: Escherichia coli; experiment: Antibacterial activity against Escherichia coli HB101 after 16 to 18 hrs in presence of PAbetaN by broth microdilution method; format: functional
# [30] = tested on: Staphylococcus saprophyticus; experiment: Antibacterial activity against Staphylococcus saprophyticus clinical isolate after 16 to 18 hrs by broth microdilution method; format: functional
# [31] = tested on: Escherichia coli; experiment: Ratio of MIC for novobiocin-resistant Escherichia coli CC7 harboring GyrB Arg136Ser mutant to MIC for Escherichia coli HB101; format: functional
# [32] = tested on: Escherichia coli; experiment: Ratio of MIC for ciprofloxacin-resistant Escherichia coli JW5503 harboring GyrA Asp87Gly mutant to MIC for Escherichia coli JW5503; format: functional
# [33] = tested on: Enterococcus faecium; experiment: Antibacterial activity against Enterococcus faecium after 16 to 18 hrs by broth microdilution method; format: functional
# [34] = tested on: Escherichia coli; experiment: Antibacterial activity against Escherichia coli UPEC after 16 to 18 hrs by broth microdilution method; format: functional
# [35] = tested on: Escherichia coli; experiment: Ratio of MIC for gyramide-resistant Escherichia coli JW5503 harboring GyrA His45Tyr mutant to MIC for Escherichia coli JW5503; format: functional
# [36] = tested on: Pseudomonas aeruginosa; experiment: Antibacterial activity against Pseudomonas aeruginosa after 16 to 18 hrs by broth microdilution method; format: functional
# [37] = tested on: Escherichia coli; experiment: Ratio of MIC for ciprofloxacin-resistant Escherichia coli JW5503 harboring GyrA Ser83Leu mutant to MIC for Escherichia coli JW5503; format: functional
# [38] = tested on: Escherichia coli; experiment: Antibacterial activity against gyramide-resistant Escherichia coli JW5503 harboring GyrA His45Tyr mutant after 16 to 18 hrs by broth microdilution method; format: functional
# [39] = tested on: Escherichia coli; experiment: Antibacterial activity against Escherichia coli JW5503 overexpressing gyrA in absence of IPTG induction after 16 hrs by broth microdilution method; format: functional; conditions: JW5503, 16 h
# [40] = tested on: Staphylococcus epidermidis; experiment: Antibacterial activity against Staphylococcus epidermidis clinical isolate after 16 to 18 hrs by broth microdilution method; format: functional
# [41] = tested on: Escherichia coli; experiment: Antibacterial activity against gyramide-resistant Escherichia coli JW5503 harboring GyrA Ser97Pro mutant after 16 to 18 hrs by broth microdilution method; format: functional
# [42] = tested on: Escherichia coli; experiment: Ratio of MIC for novobiocin-resistant Escherichia coli CC5 harboring GyrB Arg136His mutant to MIC for Escherichia coli HB101; format: functional
# [43] = tested on: Klebsiella aerogenes; experiment: Antibacterial activity against Enterobacter aerogenes clinical isolate after 16 to 18 hrs by broth microdilution method; format: functional
# [44] = tested on: Escherichia coli; experiment: Antibacterial activity against Escherichia coli JW5503 overexpressing gyrA in presence of IPTG induction after 16 hrs by broth microdilution method; format: functional; conditions: JW5503, 16 h
# [45] = tested on: Escherichia coli; experiment: Ratio of MIC for gyramide-resistant Escherichia coli JW5503 harboring GyrB Ser464Phe mutant to MIC for Escherichia coli JW5503; format: functional
# [46] = tested on: Escherichia coli; experiment: Antibacterial activity against ciprofloxacin-resistant Escherichia coli JW5503 harboring GyrA Asp87Tyr mutant after 16 to 18 hrs by broth microdilution method; format: functional
# [47] = tested on: Bacillus subtilis; experiment: Antibacterial activity against Bacillus subtilis after 16 to 18 hrs by broth microdilution method; format: functional
# [48] = tested on: Klebsiella pneumoniae; experiment: Antibacterial activity against Klebsiella pneumoniae after 16 to 18 hrs by broth microdilution method; format: functional
# [49] = tested on: Escherichia coli; experiment: Ratio of MIC for ciprofloxacin-resistant Escherichia coli JW5503 harboring GyrB Ser464Phe mutant to MIC for Escherichia coli JW5503; format: functional
# [50] = tested on: Edwardsiella tarda; experiment: Antibacterial activity against Edwardsiella tarda clinical isolate after 16 to 18 hrs by broth microdilution method; format: functional
# [51] = tested on: Morganella morganii; experiment: Antibacterial activity against Morganella morganii clinical isolate after 16 to 18 hrs by broth microdilution method; format: functional
# [52] = tested on: Escherichia coli; experiment: Antibacterial activity against ciprofloxacin-resistant Escherichia coli JW5503 harboring GyrA Ser83Leu mutant after 16 to 18 hrs by broth microdilution method; format: functional
# [53] = tested on: Escherichia coli; experiment: Antibacterial activity against Escherichia coli MC4100 after 16 to 18 hrs by broth microdilution method; format: functional
# [54] = tested on: Bacillus cereus; experiment: Antibacterial activity against Bacillus cereus after 16 to 18 hrs by broth microdilution method; format: functional
# [55] = tested on: Enterococcus faecalis; experiment: Antibacterial activity against Enterococcus faecalis after 16 to 18 hrs by broth microdilution method; format: functional
# [56] = tested on: Escherichia coli; experiment: Antibacterial activity against Escherichia coli transfected with empty vector
# [57] = tested on: Escherichia coli; experiment: Antibacterial activity against Escherichia coli JW5503 overexpressing gyrB in absence of IPTG induction after 16 hrs by broth microdilution method; format: functional; conditions: JW5503, 16 h
structure (smiles),measurement,setting,value
N#Cc1cccc(S(=O)(=O)N[C@@H]2CCN(Cc3ccc(-c4ccccc4)cc3)C2)c1,MIC,[1],0.1 µg/mL
same,MIC,[2],0.2 µg/mL
same,MIC,[3],10 µg/mL
same,MIC,[4],0.2 µg/mL
same,Ratio,[5],2 - 4
same,MIC,[6],16 µg/mL
same,Ratio,[7],160
same,MIC,[8],> 16 µg/mL
same,inhibition,[9],inactive
same,MIC,[10],0.4 µg/mL
same,MIC,[11],0.1 µg/mL
same,MIC,[12],> 16 µg/mL
same,MIC,[13],10 µg/mL
same,MIC,[14],> 16 µg/mL
same,MIC,[15],> 16 µg/mL
same,MIC,[16],1 µg/mL
same,Ratio,[17],8
same,Activity,[18],Active
same,Ratio,[19],10 - 100
same,Ratio,[20],2 - 4
same,Ratio,[21],10 - 100
same,MIC,[22],8 µg/mL
same,IC50,[23],52 nM
same,MIC,[24],0.1 µg/mL
same,MIC,[25],2 µg/mL
same,MIC,[26],> 16 µg/mL
same,Ratio,[27],10 - 100
same,MIC,[28],10 µg/mL
same,MIC,[29],0.1 µg/mL
same,MIC,[30],> 16 µg/mL
same,Ratio,[31],2 - 4
same,Ratio,[32],2 - 4
same,MIC,[33],> 16 µg/mL
same,MIC,[34],16 µg/mL
same,Ratio,[35],10 - 100
same,MIC,[36],> 16 µg/mL
same,Ratio,[37],2 - 4
same,MIC,[38],10 µg/mL
same,MIC,[39],0.2 µg/mL
same,MIC,[40],> 16 µg/mL
same,MIC,[41],> 10 µg/mL
same,Ratio,[42],2 - 4
same,MIC,[43],> 16 µg/mL
same,MIC,[44],0.1 µg/mL
same,Ratio,[45],10 - 100
same,MIC,[46],0.4 µg/mL
same,MIC,[47],> 16 µg/mL
same,MIC,[48],> 16 µg/mL
same,Ratio,[49],2 - 4
same,MIC,[50],16 µg/mL
same,MIC,[51],> 16 µg/mL
same,MIC,[52],0.2 µg/mL
same,MIC,[53],8 µg/mL
same,MIC,[54],> 16 µg/mL
same,MIC,[55],> 16 µg/mL
Cc1ccc(F)cc1S(=O)(=O)N[C@@H]1CCN(Cc2ccc(-c3ccccc3)cc2)C1,Ratio,[7],> 1600
O=C(O)c1cn(C2CC2)c2cc(N3CCNCC3)c(F)cc2c1=O [CIPROFLOXACIN],MIC,[2],0.0021 µg/mL
same,MIC,[4],0.0021 µg/mL
same,inhibition,[9],inactive
same,Activity,[18],Active
same,MIC,[56],0.009 µg/mL
same,MIC,[24],0.0021 µg/mL
same,MIC,[57],0.0021 µg/mL
same,MIC,[39],0.0021 µg/mL
same,MIC,[52],0.0064 µg/mL
